Reference: patent US10499642B2, “Isoxazoline-substituted benzamides and analogues as insecticides” (SYNGENTA PARTICIPATIONS AG, priority 2015, dated 2019)
Like-named read-outs stand apart in the source and are kept apart here.

Key:
Format in all cases: in vivo
Diabrotica Balteata = assay: Diabrotica balteata (corn root worm) maize sprout test; settings: 96 h, read-out: effect in at least one of the two categories (mortality or growth inhibition)
Procedure, shortened: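 Scoring covered both mortality and growth inhibition relative to untreated controls, 4 days post-infestation. Test solutions at 200 ppm, diluted in water from 10′000 ppm DMSO stocks, were sprayed onto agar-held maize sprouts, which after drying received 6 to 10 L2 larvae each well.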

Spodoptera littoralis = Spodoptera littoralis (Egyptian cotton leaf worm) cotton leaf disc test; settings: foliar, 72 h, read-out: control (at least one of mortality, anti-feedant effect, and growth inhibition)
Procedure, shortened: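 Five first-instar larvae per disc were placed on dried, sprayed cotton leaf discs held on agar. Test solutions were aqueous, made from 10′000 ppm DMSO stocks. At day 3, control was counted when mortality, feeding deterrence or growth inhibition exceeded the untreated discs.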

Thrips tabaci = Thrips tabaci (onion thrips) sunflower leaf disc test; settings: foliar, 144 h
Method: Thrips tabaci (Onion Thrips):
(§1) Sunflower leaf discs were placed on agar in 24-well microtiter plates and sprayed with aqueous test solutions prepared from 10′000 ppm DMSO stock solutions. After drying the leaf discs were infested with a thrips population of mixed ages. The samples were assessed for mortality 6 days after infestation.

Tetranychus urticae = Tetranychus urticae (two-spotted spider mite) bean leaf disc test; settings: foliar, 192 h
Method: Tetranychus urticae (Two-Spotted Spider Mite):
as §1, with “Bean” for “Sunflower”, “discs” for “discs were placed”, “were” for “and”, “mite” for “thrips”, “on mixed population (mobile stages) 8” for “6”

Plutella xylostella = Plutella xylostella (diamond back moth) artificial diet test; settings: 120 h, read-out: effect in at least one of the two categories (mortality or growth inhibition)
Procedure, shortened: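 At a 200 ppm rate, test solutions were applied to artificial diet and allowed to dry before second-instar larvae were added. Five days later, larval mortality and growth inhibition were rated against untreated samples.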

Myzus persicae = Myzus persicae (green peach aphid) sunflower leaf disc test; settings: foliar, 144 h
Method: Myzus persicae (Green Peach Aphid):
Sunflower leaf discs were placed on agar in a 24-well microtiter plate and sprayed with test solutions at an application rate of 200 ppm. After drying, the leaf discs were infested with an aphid population of mixed ages. After an incubation period of 6 days after treatment, samples were checked for mortality. The following compounds gave at least 80% mortality of Myzus persicae: […]

CCOC1=NOC(NC(=O)c2ccc(C3=NO[C@@](c4cc(Cl)c(Cl)c(Cl)c4)(C(F)(F)F)C3)cc2Cl)C1 (stereo partly drawn) [Compound A060, 2-chloro-N-(3-ethoxy-4,5-dihydroisoxazol-5-yl)-4-[(5S)-5-(3,4,5-trichlorophenyl)-5-(trifluoromethyl)-4H-isoxazol-3-yl]benzamide]
≥ 80%: percent effect (mortality or growth inhibition) at 200 ppm (Diabrotica Balteata) | percent control (mortality, anti-feedant effect or growth inhibition) at 200 ppm (Spodoptera littoralis) | mortality at 200 ppm (Thrips tabaci) | mortality at 200 ppm (Tetranychus urticae) | percent effect (mortality or growth inhibition) at 200 ppm (Plutella xylostella) | mortality at 200 ppm (Myzus persicae)

CCC1=NOC(N(C=O)C(=O)c2ccc(C3=NO[C@@](c4cc(Cl)c(F)c(Cl)c4)(C(F)(F)F)C3)cc2C)C1 (stereo partly drawn) [Compound A022, 4-[(5S)-5-(3,5-dichloro-4-fluoro-phenyl)-5-(trifluoromethyl)-4H-isoxazol-3-yl]-N-(3-ethyl-4,5-dihydroisoxazol-5-yl)-N-formyl-2-methyl-benzamide]
≥ 80%: percent effect (mortality or growth inhibition) at 200 ppm (Diabrotica Balteata) | percent control (mortality, anti-feedant effect or growth inhibition) at 200 ppm (Spodoptera littoralis) | mortality at 200 ppm (Thrips tabaci) | mortality at 200 ppm (Tetranychus urticae) | percent effect (mortality or growth inhibition) at 200 ppm (Plutella xylostella) | mortality at 200 ppm (Myzus persicae)

COC1=NOC(NC(=O)c2ccc(C3=NO[C@@](c4cc(Cl)c(Cl)c(Cl)c4)(C(F)(F)F)C3)cc2Cl)C1 (stereo partly drawn) [Compound A043]
≥ 80%: percent effect (mortality or growth inhibition) at 200 ppm (Diabrotica Balteata) | percent control (mortality, anti-feedant effect or growth inhibition) at 200 ppm (Spodoptera littoralis) | mortality at 200 ppm (Thrips tabaci) | mortality at 200 ppm (Tetranychus urticae) | percent effect (mortality or growth inhibition) at 200 ppm (Plutella xylostella) | mortality at 200 ppm (Myzus persicae)

CCOC1=NOC(NC(=O)c2ccc(C3=NO[C@@](c4cc(Cl)cc(Cl)c4)(C(F)(F)F)C3)cc2Cl)C1 (stereo partly drawn) [Compound A063]
≥ 80%: percent effect (mortality or growth inhibition) at 200 ppm (Diabrotica Balteata) | percent control (mortality, anti-feedant effect or growth inhibition) at 200 ppm (Spodoptera littoralis) | mortality at 200 ppm (Thrips tabaci) | mortality at 200 ppm (Tetranychus urticae) | percent effect (mortality or growth inhibition) at 200 ppm (Plutella xylostella) | mortality at 200 ppm (Myzus persicae)

C=C(Cl)COC1=NOC(NC(=O)c2ccc(C3=NO[C@@](c4cc(Cl)c(F)c(Cl)c4)(C(F)(F)F)C3)cc2C)C1 (stereo partly drawn) [Compound A100, N-[3-(2-chloroallyloxy)-4,5-dihydroisoxazol-5-yl]-4-[(5S)-5-(3,5-dichloro-4-fluoro-phenyl)-5-(trifluoromethyl)-4H-isoxazol-3-yl]-2-methyl-benzamide]
≥ 80%: percent effect (mortality or growth inhibition) at 200 ppm (Diabrotica Balteata) | percent control (mortality, anti-feedant effect or growth inhibition) at 200 ppm (Spodoptera littoralis) | mortality at 200 ppm (Thrips tabaci) | mortality at 200 ppm (Tetranychus urticae) | percent effect (mortality or growth inhibition) at 200 ppm (Plutella xylostella) | mortality at 200 ppm (Myzus persicae)

CC1=NOC(N(C=O)C(=O)c2ccc(C3=NO[C@@](c4cc(Cl)c(Cl)c(Cl)c4)(C(F)(F)F)C3)cc2Br)C1 (stereo partly drawn) [Compound A035, 2-bromo-N-formyl-N-(3-methyl-4,5-dihydroisoxazol-5-yl)-4-[(5S)-5-(3,4,5-trichlorophenyl)-5-(trifluoromethyl)-4H-isoxazol-3-yl]benzamide]
≥ 80%: percent effect (mortality or growth inhibition) at 200 ppm (Diabrotica Balteata) | percent control (mortality, anti-feedant effect or growth inhibition) at 200 ppm (Spodoptera littoralis) | mortality at 200 ppm (Thrips tabaci) | mortality at 200 ppm (Tetranychus urticae) | percent effect (mortality or growth inhibition) at 200 ppm (Plutella xylostella) | mortality at 200 ppm (Myzus persicae)

CCC1(COC2=NOC(NC(=O)c3ccc(C4=NO[C@@](c5cc(Cl)c(Cl)c(Cl)c5)(C(F)(F)F)C4)cc3C)C2)COC1 (stereo partly drawn) [Compound A122, N-[3-[(3-ethyloxetan-3-yl)methoxy]-4,5-dihydroisoxazol-5-yl]-2-methyl-4-[(5S)-5-(3,4,5-trichlorophenyl)-5-(trifluoromethyl)-4H-isoxazol-3-yl]benzamide]
≥ 80%: percent effect (mortality or growth inhibition) at 200 ppm (Diabrotica Balteata) | percent control (mortality, anti-feedant effect or growth inhibition) at 200 ppm (Spodoptera littoralis) | mortality at 200 ppm (Thrips tabaci) | mortality at 200 ppm (Tetranychus urticae) | percent effect (mortality or growth inhibition) at 200 ppm (Plutella xylostella) | mortality at 200 ppm (Myzus persicae)

Cc1cc(C2=NO[C@@](c3cc(Cl)c(F)c(Cl)c3)(C(F)(F)F)C2)ccc1C(=O)N[C@@H]1CC(Br)=NO1 (single isomer, unassigned) [Compound A147]
≥ 80%: percent effect (mortality or growth inhibition) at 200 ppm (Diabrotica Balteata) | percent control (mortality, anti-feedant effect or growth inhibition) at 200 ppm (Spodoptera littoralis) | mortality at 200 ppm (Thrips tabaci) | mortality at 200 ppm (Tetranychus urticae) | percent effect (mortality or growth inhibition) at 200 ppm (Plutella xylostella) | mortality at 200 ppm (Myzus persicae)

Cc1cc(C2=NO[C@@](c3cc(Br)cc(C(F)(F)F)c3)(C(F)(F)F)C2)ccc1C(=O)NC1CC(Cl)=NO1 (stereo partly drawn) [Compound A021, 4-[(5S)-5-[3-bromo-5-(trifluoromethyl)phenyl]-5-(trifluoromethyl)-4H-isoxazol-3-yl]-N-(3-chloro-4,5-dihydroisoxazol-5-yl)-2-methyl-benzamide]
≥ 80%: percent effect (mortality or growth inhibition) at 200 ppm (Diabrotica Balteata; application rate 200 ppm, maize sprouts, L2 larvae, 4 days after infestation) | percent control (mortality, anti-feedant effect or growth inhibition) at 200 ppm (Spodoptera littoralis; application rate 200 ppm, cotton leaf discs, L1 larvae, 3 days after infestation) | mortality at 200 ppm (Thrips tabaci; application rate 200 ppm, sunflower leaf discs, population of mixed ages, 6 days after infestation, read-out: mortality) | mortality at 200 ppm (Tetranychus urticae; application rate 200 ppm, bean leaf discs, mixed population (mobile stages), 8 days after infestation, read-out: mortality) | percent effect (mortality or growth inhibition) at 200 ppm (Plutella xylostella; application rate 200 ppm, artificial diet, L2 larvae, 5 days after infestation) | mortality at 200 ppm (Myzus persicae; application rate 200 ppm, sunflower leaf discs, population of mixed ages, 6 days after treatment, read-out: mortality)

Cc1cc(C2=NO[C@@](c3cc(Cl)c(F)c(Cl)c3)(C(F)(F)F)C2)ccc1C(=O)NC1CC=NO1 (stereo partly drawn) [Compound A091]
≥ 80%: percent effect (mortality or growth inhibition) at 200 ppm (Diabrotica Balteata) | percent control (mortality, anti-feedant effect or growth inhibition) at 200 ppm (Spodoptera littoralis) | mortality at 200 ppm (Thrips tabaci) | mortality at 200 ppm (Tetranychus urticae) | percent effect (mortality or growth inhibition) at 200 ppm (Plutella xylostella) | mortality at 200 ppm (Myzus persicae)

CC1=NOC(NC(=O)c2ccc(C3=NO[C@@](c4cc(Cl)c(Cl)c(Cl)c4)(C(F)(F)F)C3)cc2C)C1 (stereo partly drawn) [Compound A027, 2-methyl-N-(3-methyl-4,5-dihydroisoxazol-5-yl)-4-[(5S)-5-(3,4,5-trichlorophenyl)-5-(trifluoromethyl)-4H-isoxazol-3-yl]benzamide]
≥ 80%: percent effect (mortality or growth inhibition) at 200 ppm (Diabrotica Balteata) | percent control (mortality, anti-feedant effect or growth inhibition) at 200 ppm (Spodoptera littoralis) | mortality at 200 ppm (Thrips tabaci) | mortality at 200 ppm (Tetranychus urticae) | percent effect (mortality or growth inhibition) at 200 ppm (Plutella xylostella) | mortality at 200 ppm (Myzus persicae)

Cc1cc(C2=NO[C@@](c3cc(Cl)c(F)c(Cl)c3)(C(F)(F)F)C2)ccc1C(=O)NC1CC(OCC(F)(F)C(F)C(F)(F)F)=NO1 (stereo partly drawn) [Compound A075]
≥ 80%: percent effect (mortality or growth inhibition) at 200 ppm (Diabrotica Balteata) | percent control (mortality, anti-feedant effect or growth inhibition) at 200 ppm (Spodoptera littoralis) | mortality at 200 ppm (Thrips tabaci) | mortality at 200 ppm (Tetranychus urticae) | percent effect (mortality or growth inhibition) at 200 ppm (Plutella xylostella) | mortality at 200 ppm (Myzus persicae)

Cc1cc(C2=NO[C@@](c3cc(Cl)c(Cl)c(Cl)c3)(C(F)(F)F)C2)ccc1C(=O)NC1CC(OCc2ccccc2)=NO1 (stereo partly drawn) [Compound A110, N-(3-benzyloxy-4,5-dihydroisoxazol-5-yl)-2-methyl-4-[(5S)-5-(3,4,5-trichlorophenyl)-5-(trifluoromethyl)-4H-isoxazol-3-yl]benzamide]
≥ 80%: percent effect (mortality or growth inhibition) at 200 ppm (Diabrotica Balteata) | percent control (mortality, anti-feedant effect or growth inhibition) at 200 ppm (Spodoptera littoralis) | mortality at 200 ppm (Thrips tabaci) | mortality at 200 ppm (Tetranychus urticae) | percent effect (mortality or growth inhibition) at 200 ppm (Plutella xylostella) | mortality at 200 ppm (Myzus persicae)

Cc1cc(C2=NO[C@@](c3cc(Cl)c(F)c(Cl)c3)(C(F)(F)F)C2)ccc1C(=O)NC1CC(OC2COC2)=NO1 (stereo partly drawn) [Compound A082]
≥ 80%: percent effect (mortality or growth inhibition) at 200 ppm (Diabrotica Balteata) | percent control (mortality, anti-feedant effect or growth inhibition) at 200 ppm (Spodoptera littoralis) | mortality at 200 ppm (Thrips tabaci) | mortality at 200 ppm (Tetranychus urticae) | percent effect (mortality or growth inhibition) at 200 ppm (Plutella xylostella) | mortality at 200 ppm (Myzus persicae)
